Measurements as given in ChEMBL document CHEMBL5724914, “Linking interpersonal differences in gut microbiota composition and drug biotransformation activity” (2024).

Assays:
[1] = (§1) The drug is tested on Z-024 corresponding to pig gut metagenome with ENA study accession number: PRJEB37062 and ENA sample accession number: ERS12561823 for biotransformation under anaerobic condition. The drug concentrations were measured over 9 timepoints collected between 0 and 24 hours of incubation by liquid-chromatography-coupled mass spectrometry (LC–MS); conditions: 2 µM
[2] = as §1, with “Z-019” for “Z-024”, “rat” for “pig”, “ERS12561818” for “ERS12561823”; conditions: 2 µM
[3] = as §1, with “Z-017” for “Z-024”, “mouse” for “pig”, “ERS12561816” for “ERS12561823”; conditions: 2 µM
[4] = as §1, with “Z-016” for “Z-024”, “mouse” for “pig”, “ERS12561815” for “ERS12561823”; conditions: 2 µM
[5] = as §1, with “Z-007” for “Z-024”, “rat” for “pig”, “ERS12561807” for “ERS12561823”; conditions: 2 µM
[6] = as §1, with “WLS-170” for “Z-024”, “human” for “pig”, “ERS12561762” for “ERS12561823”; conditions: 2 µM
[7] = as §1, with “WLS-073” for “Z-024”, “human” for “pig”, “ERS12561749” for “ERS12561823”; conditions: 2 µM
[8] = as §1, with “WLS-069” for “Z-024”, “human” for “pig”, “ERS12561748” for “ERS12561823”; conditions: 2 µM
[9] = as §1, with “WLS-052” for “Z-024”, “human” for “pig”, “ERS12561747” for “ERS12561823”; conditions: 2 µM
[10] = human gut metagenome, 24 h, 2 µM
[11] = human gut metagenome, 24 h, 2 µM; remark: listed apart in the source
[12] = human gut metagenome, 24 h, 2 µM; remark: listed apart in the source
[13] = human gut metagenome, 24 h, 2 µM; remark: listed apart in the source
[14] = human gut metagenome, 24 h, 2 µM; remark: listed apart in the source
[15] = human gut metagenome, 24 h, 2 µM; remark: listed apart in the source
[16] = human gut metagenome, 24 h, 2 µM; remark: listed apart in the source
[17] = human gut metagenome, 24 h, 2 µM; remark: listed apart in the source
[18] = human gut metagenome, 24 h, 2 µM; remark: listed apart in the source
[19] = human gut metagenome, 24 h, 2 µM; remark: listed apart in the source
[20] = human gut metagenome, 24 h, 2 µM; remark: listed apart in the source
Also: call rule not given here.

CN(C)C(=O)Oc1cccc([N+](C)(C)C)c1.[Br-] [NEOSTIGMINE BROMIDE]
Bacterial Biotransformation [1]: Compound NOT metabolized
Bacterial Biotransformation [2]: Compound NOT metabolized
Bacterial Biotransformation [3]: Compound NOT metabolized
Bacterial Biotransformation [4]: Compound NOT metabolized
Bacterial Biotransformation [5]: Compound NOT metabolized
Bacterial Biotransformation [6]: Compound NOT metabolized
Bacterial Biotransformation [7]: Compound NOT metabolized
Bacterial Biotransformation [8]: Compound NOT metabolized
Bacterial Biotransformation [9]: Compound NOT metabolized
Bacterial Biotransformation [10]: Compound NOT metabolized
Bacterial Biotransformation [11]: Compound NOT metabolized
Bacterial Biotransformation [12]: Compound NOT metabolized
Bacterial Biotransformation [13]: Compound NOT metabolized
Bacterial Biotransformation [14]: Compound NOT metabolized
Bacterial Biotransformation [15]: Compound NOT metabolized
Bacterial Biotransformation [16]: Compound NOT metabolized
Bacterial Biotransformation [17]: Compound NOT metabolized
Bacterial Biotransformation [18]: Compound NOT metabolized
Bacterial Biotransformation [19]: Compound NOT metabolized
Bacterial Biotransformation [20]: Compound NOT metabolized

Cc1ccccc1C(OCCN(C)C)c1ccccc1.O=C(O)CC(O)(CC(=O)O)C(=O)O (stereo not given) [ORPHENADRINE CITRATE]
Bacterial Biotransformation [1]: Compound metabolized
Bacterial Biotransformation [2]: Compound NOT metabolized
Bacterial Biotransformation [3]: Compound NOT metabolized
Bacterial Biotransformation [4]: Compound metabolized
Bacterial Biotransformation [5]: Compound NOT metabolized
Bacterial Biotransformation [6]: Compound metabolized
Bacterial Biotransformation [7]: Compound NOT metabolized
Bacterial Biotransformation [8]: Compound NOT metabolized
Bacterial Biotransformation [9]: Compound NOT metabolized
Bacterial Biotransformation [10]: Compound metabolized
Bacterial Biotransformation [11]: Compound NOT metabolized
Bacterial Biotransformation [12]: Compound NOT metabolized
Bacterial Biotransformation [13]: Compound NOT metabolized
Bacterial Biotransformation [14]: Compound NOT metabolized
Bacterial Biotransformation [15]: Compound metabolized
Bacterial Biotransformation [16]: Compound NOT metabolized
Bacterial Biotransformation [17]: Compound NOT metabolized
Bacterial Biotransformation [18]: Compound NOT metabolized
Bacterial Biotransformation [19]: Compound NOT metabolized
Bacterial Biotransformation [20]: Compound NOT metabolized

CC(=O)CCCCn1c(=O)c2c(ncn2C)n(C)c1=O [PENTOXIFYLLINE]
Bacterial Biotransformation [1]: Compound NOT metabolized
Bacterial Biotransformation [2]: Compound NOT metabolized
Bacterial Biotransformation [3]: Compound NOT metabolized
Bacterial Biotransformation [4]: Compound NOT metabolized
Bacterial Biotransformation [5]: Compound NOT metabolized
Bacterial Biotransformation [6]: Compound metabolized
Bacterial Biotransformation [7]: Compound NOT metabolized
Bacterial Biotransformation [8]: Compound NOT metabolized
Bacterial Biotransformation [9]: Compound NOT metabolized
Bacterial Biotransformation [10]: Compound NOT metabolized
Bacterial Biotransformation [11]: Compound NOT metabolized
Bacterial Biotransformation [12]: Compound NOT metabolized
Bacterial Biotransformation [13]: Compound NOT metabolized
Bacterial Biotransformation [14]: Compound NOT metabolized
Bacterial Biotransformation [15]: Compound NOT metabolized
Bacterial Biotransformation [16]: Compound NOT metabolized
Bacterial Biotransformation [17]: Compound NOT metabolized
Bacterial Biotransformation [18]: Compound NOT metabolized
Bacterial Biotransformation [19]: Compound NOT metabolized
Bacterial Biotransformation [20]: Compound NOT metabolized

CCCN1C[C@H](CSC)C[C@@H]2c3cccc4[nH]cc(c34)C[C@H]21.CS(=O)(=O)O [PERGOLIDE MESYLATE]
Bacterial Biotransformation [1]: Compound NOT metabolized
Bacterial Biotransformation [2]: Compound NOT metabolized
Bacterial Biotransformation [3]: Compound NOT metabolized
Bacterial Biotransformation [4]: Compound NOT metabolized
Bacterial Biotransformation [5]: Compound NOT metabolized
Bacterial Biotransformation [6]: Compound NOT metabolized
Bacterial Biotransformation [7]: Compound NOT metabolized
Bacterial Biotransformation [8]: Compound NOT metabolized
Bacterial Biotransformation [9]: Compound NOT metabolized
Bacterial Biotransformation [10]: Compound NOT metabolized
Bacterial Biotransformation [11]: Compound NOT metabolized
Bacterial Biotransformation [12]: Compound NOT metabolized
Bacterial Biotransformation [13]: Compound NOT metabolized
Bacterial Biotransformation [14]: Compound NOT metabolized
Bacterial Biotransformation [15]: Compound NOT metabolized
Bacterial Biotransformation [16]: Compound NOT metabolized
Bacterial Biotransformation [17]: Compound NOT metabolized
Bacterial Biotransformation [18]: Compound NOT metabolized
Bacterial Biotransformation [19]: Compound NOT metabolized
Bacterial Biotransformation [20]: Compound NOT metabolized

CC(C)(C)N.CCC[C@H](N[C@@H](C)C(=O)N1[C@H](C(=O)O)C[C@@H]2CCCC[C@@H]21)C(=O)OCC [PERINDOPRIL ERBUMINE]
Bacterial Biotransformation [1]: Compound metabolized
Bacterial Biotransformation [2]: Compound NOT metabolized
Bacterial Biotransformation [3]: Compound NOT metabolized
Bacterial Biotransformation [4]: Compound NOT metabolized
Bacterial Biotransformation [5]: Compound NOT metabolized
Bacterial Biotransformation [6]: Compound metabolized
Bacterial Biotransformation [7]: Compound NOT metabolized
Bacterial Biotransformation [8]: Compound metabolized
Bacterial Biotransformation [9]: Compound NOT metabolized
Bacterial Biotransformation [10]: Compound metabolized
Bacterial Biotransformation [11]: Compound NOT metabolized
Bacterial Biotransformation [12]: Compound metabolized
Bacterial Biotransformation [13]: Compound metabolized
Bacterial Biotransformation [14]: Compound metabolized
Bacterial Biotransformation [15]: Compound metabolized
Bacterial Biotransformation [16]: Compound metabolized
Bacterial Biotransformation [17]: Compound metabolized
Bacterial Biotransformation [18]: Compound NOT metabolized
Bacterial Biotransformation [19]: Compound metabolized
Bacterial Biotransformation [20]: Compound metabolized

COc1cc(NC(C)CCCN)c2ncccc2c1.O=P(O)(O)O.O=P(O)(O)O (stereo not given) [PRIMAQUINE PHOSPHATE]
Bacterial Biotransformation [1]: Compound NOT metabolized
Bacterial Biotransformation [2]: Compound NOT metabolized
Bacterial Biotransformation [3]: Compound NOT metabolized
Bacterial Biotransformation [4]: Compound metabolized
Bacterial Biotransformation [5]: Compound NOT metabolized
Bacterial Biotransformation [6]: Compound NOT metabolized
Bacterial Biotransformation [7]: Compound NOT metabolized
Bacterial Biotransformation [8]: Compound metabolized
Bacterial Biotransformation [9]: Compound NOT metabolized
Bacterial Biotransformation [10]: Compound NOT metabolized
Bacterial Biotransformation [11]: Compound NOT metabolized
Bacterial Biotransformation [12]: Compound NOT metabolized
Bacterial Biotransformation [13]: Compound NOT metabolized
Bacterial Biotransformation [14]: Compound metabolized
Bacterial Biotransformation [15]: Compound metabolized
Bacterial Biotransformation [16]: Compound NOT metabolized
Bacterial Biotransformation [17]: Compound NOT metabolized
Bacterial Biotransformation [18]: Compound NOT metabolized
Bacterial Biotransformation [19]: Compound metabolized
Bacterial Biotransformation [20]: Compound NOT metabolized

C=C[C@H]1CN2CC[C@H]1C[C@H]2[C@H](O)c1ccnc2ccc(OC)cc12.C=C[C@H]1CN2CC[C@H]1C[C@H]2[C@H](O)c1ccnc2ccc(OC)cc12.O.O.O=S(=O)(O)O [QUININE SULFATE]
Bacterial Biotransformation [1]: Compound NOT metabolized
Bacterial Biotransformation [2]: Compound NOT metabolized
Bacterial Biotransformation [3]: Compound NOT metabolized
Bacterial Biotransformation [4]: Compound NOT metabolized
Bacterial Biotransformation [5]: Compound NOT metabolized
Bacterial Biotransformation [6]: Compound metabolized
Bacterial Biotransformation [7]: Compound NOT metabolized
Bacterial Biotransformation [8]: Compound NOT metabolized
Bacterial Biotransformation [9]: Compound NOT metabolized
Bacterial Biotransformation [10]: Compound NOT metabolized
Bacterial Biotransformation [11]: Compound NOT metabolized
Bacterial Biotransformation [12]: Compound NOT metabolized
Bacterial Biotransformation [13]: Compound NOT metabolized
Bacterial Biotransformation [14]: Compound NOT metabolized
Bacterial Biotransformation [15]: Compound NOT metabolized
Bacterial Biotransformation [16]: Compound NOT metabolized
Bacterial Biotransformation [17]: Compound NOT metabolized
Bacterial Biotransformation [18]: Compound metabolized
Bacterial Biotransformation [19]: Compound metabolized
Bacterial Biotransformation [20]: Compound NOT metabolized
